Assay results published in US7521464B2, “Pyrazole compounds for treatment of neurodegenerative disorders” (Pfizer Inc., priority 2002, dated 2009).
pIC50: −log10 of the molar value.

Tested on: gamma-secretase
Assay: gamma-secretase activity in a solubilized membrane preparation (cell-free assay per McLendon et al.)
Type: biochemical
Details: read-out: IC50 activity for inhibiting gamma-secretase activity
Description: The activity of compounds of the invention in inhibiting gamma-secretase activity was determined in a solubilized membrane preparation generally according to the description provided in McLendon et al. Cell-free assays for γ-secretase activity, The FASEB Journal (Vol. 14, December 2000, pp. 2383-2386).

Row | pIC50 | Structure (SMILES)
1 | ~6.00 | O=C(Cc1cc(F)cc(F)c1)NC(C(=O)Nc1cc(-c2ccccc2)n[nH]1)c1ccccc1 (centres unmarked) [Example 84, 2-[2-(3,5-difluoro-phenyl)-acetylamino]-2-phenyl-N-(5-phenyl-2H-pyrazol-3-yl)-acetamide]
2 | ~5.30 | CCCC(NC(=O)CC(C)CCC=C(C)C)C(=O)Nc1cc(-c2ccccc2)n[nH]1 (centres unmarked) [Example 138, 3,7-Dimethyl-oct-6-enoic acid [1-(5-phenyl-2H-pyrazol-3-ylcarbamoyl)-butyl]-amide]
